Experiments:
NK-1 receptor = target: T1, NK-1 receptor (Homo sapiens, UniProt P25103); assay: NK-1 Receptor Binding Assay (125I-labeled substance P, IM9 cells); settings: for IC50: inhibits fifty percent of binding of 125I-substance P to IM9 cells
T1 construct: endogenous in cells; host or cells: IM9 cells (human cell line), whole cells
Procedure: (§1) The biological activity of the compounds of the present invention was evaluated employing an initial screening assay which rapidly and accurately measured the binding of the tested compound to known NK-1 and NK-2 receptor sites. Assays useful for evaluating tachykinin receptor antagonists are well known in the art.
NK-1 Receptor Binding Assay
Radioreceptor binding assays were performed using a derivative of a previously published protocol.
The IM9 cell line is a well-characterized and readily available human cell line.
The reaction was terminated by filtration through a glass fiber filter harvesting system using filters previously soaked for 20 minutes in 0.1% polyethylenimine. Specific binding of labeled substance P was determined in the presence of 20 nM unlabeled ligand.

human NK-2 receptor = target: T2, human NK-2 receptor (Homo sapiens, UniProt P21452); assay: NK-2 Receptor Binding Assay ([125I]iodohistidyl-neurokinin A, CHO-hNK-2R membranes); settings: for IC50: inhibits fifty percent of binding of [125I]iodohistidyl-neurokinin A to CHO-hNK-2R membranes; for NK-2 percent inhibition of binding: @ 10 μM
T2 construct: expressed in transfected cells; host or cells: CHO-hNK-2R cells (CHO-derived), membrane preparation
T2 sequence (P21452 1-398): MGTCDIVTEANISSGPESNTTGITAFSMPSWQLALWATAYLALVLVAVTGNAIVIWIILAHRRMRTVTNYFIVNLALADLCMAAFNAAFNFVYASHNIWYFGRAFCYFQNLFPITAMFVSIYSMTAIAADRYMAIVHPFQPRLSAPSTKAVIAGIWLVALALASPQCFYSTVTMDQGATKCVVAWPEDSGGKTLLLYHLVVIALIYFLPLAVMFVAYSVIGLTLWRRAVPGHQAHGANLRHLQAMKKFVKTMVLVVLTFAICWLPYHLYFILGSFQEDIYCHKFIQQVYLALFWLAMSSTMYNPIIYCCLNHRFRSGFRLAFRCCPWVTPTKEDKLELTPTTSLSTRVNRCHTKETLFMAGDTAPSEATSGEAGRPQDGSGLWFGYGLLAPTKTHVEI
Procedure: as §1, with “art. See. e.g., J. Jukic, et al., Life Sciences, 49:1463-1469 (1991); N. Kucharczyk, et al., Journal of Medicinal Chemistry, 36:1654-1661 (1993); N. Rouissi, et al., Biochemical and Biophysical Research Communications, 176:894-901 (1991).” for “art.”
NK-2 Receptor Binding Assay
The CHO-hNK-2R cells, a CHO-derived cell line transformed with the human NK-2 receptor, expressing about 400,000 such receptors per cell, were grown in 75 cm^2 flasks or roller bottles in minimal essential medium (alpha modification) with 10% fetal bovine serum. The gene sequence of the human NK-2 receptor is given in N. P. Gerard, et al., Journal of Biological Chemistry, 265:20455-20462 (1990).
For preparation of membranes, 30 confluent roller bottle cultures were dissociated by washing each roller bottle with 10 ml of Dulbecco's phosphate buffered saline (PBS) without calcium and magnesium, followed by addition of 10 ml of enzyme-free cell dissociation solution (PBS-based, from Specialty Media, Inc.). After an additional 15 minutes, the dissociated cells were pooled and centrifuged at 1,000 RPM for 10 minutes in a clinical centrifuge. Membranes were prepared by homogenization of the cell pellets in 300 ml 50 mM Tris buffer, pH 7.4 with a Tekma® homogenizer for 10-15 seconds, followed by centrifugation at 12,000 RPM (20,000×g) for 30 minutes using a Beckman JA-14® rotor. The pellets were washed once using the above procedure. and the final pellets were resuspended in 100-120 ml 50 mM Tris buffer, pH 7.4, and 4 ml aliquots stored frozen at −70° C. The protein concentration of this preparation was 2 mg/ml.
For the receptor binding assay, one 4-ml aliquot of the CHO-hNK-2R membrane preparation was suspended in 40 ml of assay buffer containing 50 mM Tris, pH 7.4, 3 mM manganese chloride, 0.02% bovine serum albumin (BSA) and 4 μg/ml chymostatin. A 200 μl volume of the homogenate (40 μg protein) was used per sample. The radioactive ligand was [^125I]iodohistidyl-neurokinin A (New England Nuclear, NEX-252), 2200 Ci/mmol. The ligand was prepared in assay buffer at 20 nCi per 100 μl; the final concentration in the assay was 20 pM. Non-specific binding was determined using 1 μM eledoisin. Ten concentrations of eledoisin from 0.1 to 1000 nM were used for a standard concentration-response curve.
All samples and standards were added to the incubation in 10 μl dimethylsulfoxide (DMSO) for screening (single dose) or in 5 μl DMSO for IC50 determinations. The order of additions for incubation was 190 or 195 μl assay buffer, 200 μl homogenate, 10 or 5 μl sample in DMSO, 100 μl radioactive ligand. The samples were incubated 1 hr at room temperature and then filtered on a 48 well Brandel cell harvester through GF/B filters which had been presoaked for two hours in 50 mM Tris buffer, pH 7.7, containing 0.5% BSA. The filter was washed 3 times with approximately 3 ml of cold 50 mm Tris buffer, pH 7.7. The filter circles were then punched into 12×75 mm polystyrene tubes and counted in a gamma counter.

T1 sequence (P25103 whole entry): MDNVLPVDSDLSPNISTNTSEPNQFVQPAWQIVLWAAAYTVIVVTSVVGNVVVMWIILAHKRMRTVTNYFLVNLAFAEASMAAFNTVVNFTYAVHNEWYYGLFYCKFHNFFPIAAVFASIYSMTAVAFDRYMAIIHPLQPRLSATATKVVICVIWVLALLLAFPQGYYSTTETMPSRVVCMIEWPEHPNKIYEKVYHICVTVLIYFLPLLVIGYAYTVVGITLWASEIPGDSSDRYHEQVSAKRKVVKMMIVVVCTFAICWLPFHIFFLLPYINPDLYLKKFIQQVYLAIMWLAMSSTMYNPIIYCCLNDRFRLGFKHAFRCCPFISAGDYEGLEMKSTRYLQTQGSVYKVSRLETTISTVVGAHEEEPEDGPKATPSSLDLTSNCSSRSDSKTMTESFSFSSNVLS

| Compound | IC50 (NK-1 receptor) [µM] | IC50 (human NK-2 receptor) [µM] | NK-1 percent inhibition of binding (NK-1 receptor; @ 1 μM) [% @] | NK-2 percent inhibition of binding (human NK-2 receptor) | NK-1 percent inhibition of binding (NK-1 receptor; @ 5 μM) [% @] |
| --- | --- | --- | --- | --- | --- |
| COc1ccccc1CNCC(Cc1c[nH]c2ccccc12)NC(=O)CN1CCN(c2ccccc2)CC1 (stereo not drawn) [Example 4] | 0.04 | 1.5 | – | – | – |
| COc1ccccc1CN(CC(Cc1cccc2ccccc12)NC(=O)CN1CCN(c2ccccc2)CC1)C(C)=O (stereo not drawn) [Example 141] | 0.011 | 0.26 | – | – | – |
| CC(=O)N(CCc1ccccc1)CC(Cc1c[nH]c2ccccc12)NC(=O)CN1CCC(N2CCCCC2)CC1 (stereo not drawn) [Example 54] | 0.0301 | 2.1 | – | – | – |
| CC(=O)N(CC(Cc1c[nH]c2ccccc12)NC(=O)CN1CCC(N2CCCCC2)CC1)C(C)c1ccccc1 (stereo not drawn) [Example 104] | 0.00062 | 1.6 | – | – | – |
| CCC(=O)N(Cc1ccccc1OC)CC(Cc1c[nH]c2ccccc12)NC(=O)CN1CCN(c2ccccc2)CC1 (stereo not drawn) [Example 26] | 0.00075 | 0.65 | – | – | – |
| COc1ccccc1CN(CC(=O)O)CC(Cc1c[nH]c2ccccc12)NC(=O)CN1CCN(c2ccccc2)CC1 (stereo not drawn) [Example 11] | 0.065 | 2.4 | – | – | – |
| COc1ccccc1CN(CC(Cc1c[nH]c2ccccc12)NC(=O)CN1CCN(c2ccccc2)CC1)C(=O)CN (stereo not drawn) [Example 34] | 0.0062 | 0.59 | – | – | – |
| CC(=O)NC(Cc1c[nH]c2ccccc12)CN(C(C)=O)C(C)c1ccccc1 (stereo not drawn) [Example 99] | – | – | 15 | 54% @ | – |
| COc1ccccc1CN(CC(Cc1c[nH]c2ccccc12)NC(=O)CN1CCN(C2CCCCC2)CC1)C(C)=O (stereo not drawn) [Example 74] | 0.00036 | 1 | – | – | – |
| COc1ccccc1CN(CC(Cc1c[nH]c2ccccc12)NC(=O)CCc1ccccc1)C(C)=O (racemic) [Example 89] | 0.17 | 1.2 | – | – | – |
| CC(=O)N(Cc1ccccc1)CC(Cc1c[nH]c2ccc(F)cc12)NC(=O)CN1CCC(N2CCCCC2)CC1 (stereo not drawn) [Example 119] | 0.0095 | 2.7 | – | – | – |
| COc1ccccc1CN(C[C@@H](Cc1c[nH]c2ccccc12)NC(=O)CN1CCN(C2CCCCC2)CC1)C(C)=O [Example 75, (R)-1-[N-(2-methoxybenzyl)acetylamino]-3-(1H-indol-3-yl)-2-[N-(2-((4-cyclohexyl)piperazin-1-yl)acetyl)amino]propane] | 0.00018 | 0.85 | – | – | – |
| COc1ccccc1CN(CC(Cc1c[nH]c2ccccc12)NC(=O)CN1CCN(c2ccc(Cl)cc2)CC1)C(C)=O (stereo not drawn) [Example 69] | 0.0054 | 0.83 | – | – | – |
| COc1ccccc1CN(CC(CC1CN(C(C)=O)c2ccccc21)NC(=O)CN1CCN(c2ccccc2)CC1)C(C)=O (mixture of isomers) [Example 145] | 0.076 | 1.9 | – | – | – |
| COc1ccccc1CN(CC(Cc1c[nH]c2cc(C)ccc12)NC(=O)CN1CCN(c2ccccc2)CC1)C(C)=O (stereo not drawn) [Example 114] | 0.0292 | 0.94 | – | – | – |
| COc1ccccc1CN(CC(N)Cc1ccccc1)C(C)=O (stereo not drawn) [Example 159] | – | – | – | 11 @ % | 54 |
| COc1ccccc1CN(CC(Cc1cn(C)c2ccccc12)NC(=O)CBr)C(C)=O (stereo not drawn) [Example 162] | 0.375 | – | – | 0% @ | – |
| COc1ccccc1CN(CC(Cc1c[nH]c2ccc(C)cc12)NC(=O)CN1CCC(N2CCCCC2)CC1)C(C)=O (stereo not drawn) [Example 126] | 0.0028 | 3.4 | – | – | – |

| Compound | IC50 (NK-1 receptor) [µM] | IC50 (human NK-2 receptor) [µM] | NK-1 percent inhibition of binding (NK-1 receptor; @ 1 μM) [% @] | NK-2 percent inhibition of binding (human NK-2 receptor) | NK-1 percent inhibition of binding (NK-1 receptor; @ 5 μM) [% @] |
| --- | --- | --- | --- | --- | --- |
| CC(=O)N(Cc1ccccc1C)CC(Cc1c[nH]c2ccccc12)NC(=O)CN1CCN(c2ccccc2)CC1 (stereo not drawn) [Example 14] | 0.0031 | 1 | – | – | – |
| COc1ccc(CN(CC(Cc2c[nH]c3ccccc23)NC(=O)CN2CCN(c3ccccc3)CC2)C(C)=O)cc1 (stereo not drawn) [Example 22] | 0.0021 | 3.3 | – | – | – |
| COC(=O)CN(Cc1ccccc1OC)CC(Cc1c[nH]c2ccccc12)NC(=O)CN1CCN(c2ccccc2)CC1 (stereo not drawn) [Example 10] | 0.019 | 0.82 | – | – | – |
| COc1ccccc1CNCC(CC1CNc2ccccc21)NC(=O)CN1CCN(c2ccccc2)CC1 (mixture of isomers) [Example 137] | 0.22 | 2.7 | – | – | – |
| COc1ccccc1CN(CC(Cc1c[nH]c2ccccc12)NC(=O)CN1CCN(c2ccccc2)CC1)C(=O)CC(=O)O (stereo not drawn) [Example 31] | 0.0092 | 6.2 | – | – | – |
| COc1ccccc1CN(CC(Cc1c[nH]c2ccccc12)NC(=O)CNCc1ccncc1)C(C)=O (stereo not drawn) [Example 83] | 0.0084 | 5.2 | – | – | – |
| COc1ccccc1CN(CC(Cc1c[nH]c2ccccc12)NC(=O)CN1CCC(N(C)C)CC1)C(C)=O (stereo not drawn) [Example 66] | 0.0046 | 7.2 | – | – | – |
| CC(=O)N(C)CC(Cc1c[nH]c2ccccc12)NC(=O)CN1CCN(c2ccccc2)CC1 (stereo not drawn) [Example 38] | – | 8 | – | – | 30 |
| COc1ccccc1CNCC(Cc1ccc2ccccc2c1)NC(=O)CN1CCN(c2ccccc2)CC1 (stereo not drawn) [Example 136] | – | 0.71 | 47 | – | – |
| COc1ccccc1CN(CC(Cc1c[nH]c2ccccc12)NC(=O)CN1CC=C(c2ccccc2)CC1)C(C)=O (stereo not drawn) [Example 67] | 0.0038 | 0.75 | – | – | – |
| CC(=O)NC(Cc1c[nH]c2ccccc12)CN(CCc1ccccc1)C(=O)CN1CCN(c2ccccc2)CC1 (stereo not drawn) [Example 110] | 0.148 | 0.12 | – | – | – |
| O=C(CN1CCN(c2ccccc2)CC1)NC(CNCc1ccccc1)Cc1c[nH]c2ccccc12 (stereo not drawn) [Example 1] | 0.053 | 1.7 | – | – | – |
| COc1ccccc1CN(CC(Cc1c[nH]c2cccc(C)c12)NC(=O)CN1CCC(N2CCCCC2)CC1)C(C)=O (stereo not drawn) [Example 125] | 0.00066 | 2.1 | – | – | – |
| COc1ccccc1CN(CC(N)Cc1cn(C)c2ccccc12)C(C)=O (stereo not drawn) [Example 160] | – | 19 | – | – | 0 |
| CC(=O)NC(Cc1c[nH]c2ccccc12)CN(Cc1ccccc1Cl)C(=O)CN1CCC(N2CCCCC2)CC1 (stereo not drawn) [Example 109] | 0.19 | 2 | – | – | – |
| CNC(=O)N(Cc1ccccc1OC)CC(Cc1c[nH]c2ccccc12)NC(=O)CN1CCN(c2ccccc2)CC1 (stereo not drawn) [Example 29, 3-(1H-indol-3-yl)-1-[N-(2-methoxybenzyl)-N-(methylaminocarbonyl)amino]-2-[N-(2-((4-phenyl)piperazin-1-yl)acetyl)amino]propane] | 0.0015 | 1.5 | – | – | – |
| COc1ccccc1CN(CC(Cc1c[nH]c2ccccc12)NC(=O)CN1CCN(c2ncccn2)CC1)C(C)=O (stereo not drawn) [Example 78] | 0.01 | 2.1 | – | – | – |
| COc1ccccc1CN(CC(Cc1cn(C)c2ccccc12)NC(=O)CN1CCC(N2CCCCC2)CC1)C(C)=O (stereo not drawn) [Example 124] | 0.00093 | 1.4 | – | – | – |

Reference: patent US6869957B1, “Non-peptide tachykinin receptor antagonists” (Eli Lilly and Company, priority 1993, dated 2005)
